Measurements taken from ChEMBL document CHEMBL1201862, “PubChem BioAssay data set” (2004).
Activity calls are given as the source filed them.

Tests used:
[1] = target: Phospholipase D2 (Homo sapiens, UniProt O14939); experiment: PLD2 inhibitor potency in cells, dose response (AID 602147); type: functional;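 note: cellular assay in HEK293 cells overexpressing GFP-tagged PLD2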
[2] = target: Phospholipase D1 (Homo sapiens, UniProt Q13393); experiment: PLD1 inhibitor potency in cells, dose response (AID 602151); type: functional;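 note: cellular PLD1 assay in Calu-1 cells stimulated with PMA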
[3] = target: Phospholipase A2 (Homo sapiens, UniProt P04054); type: functional;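 note: confirmatory dose-response counterscreen on phospholipase A2, testing hits that came from an ultra-high-throughput screen for ATG4B inhibitors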
[4] = cells; type: functional
[5] = target: Cysteine protease ATG4B (Homo sapiens, UniProt Q9Y4P1); type: functional;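 note: Fluorescence-based dose-response confirmation assay measuring inhibition of ATG4B activity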
[6] = target: DNA topoisomerase (Yersinia pestis, UniProt A0A2S9PM60); experiment: Y. pestis Topo-I inhibitors, cleavage product readout, dose response, biochemical, cherry-pick (AID 588525)
[7] = target: Peroxisome proliferator-activated receptor gamma/Nuclear receptor corepressor 2 (Homo sapiens, UniProt P37231+Q9Y618); type: functional
[8] = HIV-1 Env-mediated cell fusion inhibitors, dose response, CCR5-tropic Env (AID 2279); type: functional
[9] = target: Photoreceptor-specific nuclear receptor (Homo sapiens, UniProt Q9Y5X4); type: functional;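 note: potency for compounds that break the NR2E3 corepressor complex and count as activators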
[10] = target: T1, Cytochrome P450 1A2 (Homo sapiens, UniProt P05177);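 note: PubChem cytochrome P450 panel assay, CYP1A2 panel member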
T1 sequence (P05177 whole entry): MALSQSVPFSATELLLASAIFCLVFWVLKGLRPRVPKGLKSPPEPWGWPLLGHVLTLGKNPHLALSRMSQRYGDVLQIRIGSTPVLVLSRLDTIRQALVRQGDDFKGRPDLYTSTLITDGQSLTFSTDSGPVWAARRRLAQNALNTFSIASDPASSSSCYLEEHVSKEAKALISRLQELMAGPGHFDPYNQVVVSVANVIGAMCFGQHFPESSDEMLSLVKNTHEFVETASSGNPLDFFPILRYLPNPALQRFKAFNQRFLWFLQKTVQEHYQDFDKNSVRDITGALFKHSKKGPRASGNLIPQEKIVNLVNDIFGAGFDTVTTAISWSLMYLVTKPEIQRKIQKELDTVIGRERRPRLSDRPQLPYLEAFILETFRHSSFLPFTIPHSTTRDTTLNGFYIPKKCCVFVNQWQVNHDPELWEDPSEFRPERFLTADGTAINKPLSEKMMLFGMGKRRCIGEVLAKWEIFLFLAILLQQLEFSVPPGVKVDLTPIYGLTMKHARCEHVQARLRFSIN

[11] = target: T2, Dual specificity protein phosphatase 3 (Homo sapiens, UniProt P51452); experiment: MOA VHR1 Fluorescent secondary assay for identification of redox-state modulating compounds. [Related pubchem assays (depositor defined):AID1654, AID1661, AID1878, AID1957]
[12] = target: Intestinal-type alkaline phosphatase (Homo sapiens, UniProt P09923); experiment: inhibition of human intestinal alkaline phosphatase – biochemical, dose response (AID 488876); type: functional
[13] = target: T3, Alkaline phosphatase, tissue-nonspecific isozyme (Homo sapiens, UniProt P05186); experiment: TNAP enzyme inhibition by screening hits, dose response, selectivity assay for mouse IAP inhibitor project, biochemical, human TNAP, uHTS hits (AID 488906); type: functional
T3 sequence (P05186 whole entry): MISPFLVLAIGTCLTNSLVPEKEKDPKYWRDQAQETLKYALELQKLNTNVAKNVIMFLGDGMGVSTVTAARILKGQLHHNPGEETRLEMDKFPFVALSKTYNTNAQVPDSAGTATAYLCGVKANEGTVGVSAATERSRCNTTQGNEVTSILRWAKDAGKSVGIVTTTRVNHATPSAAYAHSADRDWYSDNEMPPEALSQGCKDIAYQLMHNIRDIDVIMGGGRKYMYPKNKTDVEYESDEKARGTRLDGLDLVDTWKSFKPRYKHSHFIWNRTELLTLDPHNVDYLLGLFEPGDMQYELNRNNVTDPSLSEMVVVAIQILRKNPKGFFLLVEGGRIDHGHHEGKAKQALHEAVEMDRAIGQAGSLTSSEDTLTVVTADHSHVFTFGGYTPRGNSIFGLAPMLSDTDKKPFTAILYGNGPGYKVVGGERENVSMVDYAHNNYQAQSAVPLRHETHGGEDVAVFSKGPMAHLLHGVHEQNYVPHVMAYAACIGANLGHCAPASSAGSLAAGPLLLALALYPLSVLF

[14] = target: T2, Dual specificity protein phosphatase 3; experiment: SAR VHR1 Fluorescent Assay for In Vitro dose response studies. [Related pubchem assays (depositor defined):AID1654, AID1661, AID1878, AID1992, AID2004, AID2070, AID2085]; type: functional
[15] = target: Glyceraldehyde-3-phosphate dehydrogenase (Homo sapiens, UniProt P04406)
[16] = target: Induced myeloid leukemia cell differentiation protein Mcl-1 (Homo sapiens, UniProt Q07820); type: functional
[17] = target: T4, Tyrosine-protein phosphatase non-receptor type 7 (Homo sapiens, UniProt P35236); type: functional
T4 sequence (P35236 whole entry): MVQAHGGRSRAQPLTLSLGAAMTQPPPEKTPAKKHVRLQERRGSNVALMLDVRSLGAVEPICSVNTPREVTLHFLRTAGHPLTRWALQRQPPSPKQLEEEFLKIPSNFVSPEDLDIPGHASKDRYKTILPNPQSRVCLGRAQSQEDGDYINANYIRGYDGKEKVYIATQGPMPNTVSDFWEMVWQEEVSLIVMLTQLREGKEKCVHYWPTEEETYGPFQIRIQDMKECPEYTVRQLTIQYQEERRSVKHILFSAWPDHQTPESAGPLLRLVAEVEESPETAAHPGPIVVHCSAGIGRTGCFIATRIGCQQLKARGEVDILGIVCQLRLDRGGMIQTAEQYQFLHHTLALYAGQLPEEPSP

[18] = target: T5, Dual specificity protein phosphatase 6 (Rattus norvegicus, UniProt Q64346)
T5 sequence (Q64346 whole entry): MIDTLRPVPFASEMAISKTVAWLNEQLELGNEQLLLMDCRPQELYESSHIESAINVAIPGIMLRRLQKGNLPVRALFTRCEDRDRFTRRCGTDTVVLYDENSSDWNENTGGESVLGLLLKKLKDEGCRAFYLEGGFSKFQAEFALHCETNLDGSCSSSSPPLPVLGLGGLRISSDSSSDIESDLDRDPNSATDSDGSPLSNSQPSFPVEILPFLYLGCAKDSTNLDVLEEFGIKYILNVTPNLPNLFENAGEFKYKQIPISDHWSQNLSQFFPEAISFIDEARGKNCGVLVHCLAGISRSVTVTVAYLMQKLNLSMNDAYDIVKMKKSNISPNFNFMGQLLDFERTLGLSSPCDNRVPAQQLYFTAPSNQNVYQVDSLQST

[19] = target: T4, Tyrosine-protein phosphatase non-receptor type 7; experiment: redox-dependent HePTP inhibition, mechanism study, biochemical, fluorescence (AID 2068); type: functional
[20] = target: Cytochrome P450 2C9 (Homo sapiens, UniProt P11712)
[21] = target: Intestinal-type alkaline phosphatase (Mus musculus, UniProt P24822); experiment: PubChem AID 488785; type: functional
[22] = target: Beta-adrenergic receptor kinase 1 (Homo sapiens, UniProt P25098); experiment: aptamer displacement from bead-bound GRK2 – biochemical, cherry pick 1, bead flow cytometry, dose response (AID 504500)
[23] = target: T5, Dual specificity protein phosphatase 6; type: functional

T2 sequence (P51452 whole entry): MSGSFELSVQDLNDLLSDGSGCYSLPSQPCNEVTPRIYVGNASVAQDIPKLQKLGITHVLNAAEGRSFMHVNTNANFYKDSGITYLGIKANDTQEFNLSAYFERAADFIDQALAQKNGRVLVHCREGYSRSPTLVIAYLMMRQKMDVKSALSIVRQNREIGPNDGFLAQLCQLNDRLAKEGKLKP
Sequence of Phospholipase A2 (P04054 whole entry): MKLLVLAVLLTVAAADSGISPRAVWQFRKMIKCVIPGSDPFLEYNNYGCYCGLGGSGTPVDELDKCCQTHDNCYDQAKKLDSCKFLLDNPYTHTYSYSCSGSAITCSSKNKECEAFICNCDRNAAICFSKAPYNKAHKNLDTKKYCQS
Sequence of Beta-adrenergic receptor kinase 1 (P25098 whole entry): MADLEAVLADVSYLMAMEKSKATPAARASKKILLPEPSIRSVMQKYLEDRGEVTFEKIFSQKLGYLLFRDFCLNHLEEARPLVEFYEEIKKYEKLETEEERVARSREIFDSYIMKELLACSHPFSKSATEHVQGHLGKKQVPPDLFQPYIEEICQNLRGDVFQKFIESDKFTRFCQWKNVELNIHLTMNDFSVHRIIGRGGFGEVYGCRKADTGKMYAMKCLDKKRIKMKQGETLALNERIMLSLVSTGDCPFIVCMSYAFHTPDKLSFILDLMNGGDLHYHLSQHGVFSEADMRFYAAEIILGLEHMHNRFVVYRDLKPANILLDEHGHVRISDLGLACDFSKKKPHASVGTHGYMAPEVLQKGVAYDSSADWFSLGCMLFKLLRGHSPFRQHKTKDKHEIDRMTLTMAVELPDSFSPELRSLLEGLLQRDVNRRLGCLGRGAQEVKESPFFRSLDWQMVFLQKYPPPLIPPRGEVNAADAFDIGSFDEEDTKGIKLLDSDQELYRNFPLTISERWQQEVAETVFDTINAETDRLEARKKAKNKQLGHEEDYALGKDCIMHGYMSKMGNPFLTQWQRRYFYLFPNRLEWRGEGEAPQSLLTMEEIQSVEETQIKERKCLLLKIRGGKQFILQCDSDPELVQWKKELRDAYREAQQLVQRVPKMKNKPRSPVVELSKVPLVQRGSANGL
Sequence of Cysteine protease ATG4B (Q9Y4P1 whole entry): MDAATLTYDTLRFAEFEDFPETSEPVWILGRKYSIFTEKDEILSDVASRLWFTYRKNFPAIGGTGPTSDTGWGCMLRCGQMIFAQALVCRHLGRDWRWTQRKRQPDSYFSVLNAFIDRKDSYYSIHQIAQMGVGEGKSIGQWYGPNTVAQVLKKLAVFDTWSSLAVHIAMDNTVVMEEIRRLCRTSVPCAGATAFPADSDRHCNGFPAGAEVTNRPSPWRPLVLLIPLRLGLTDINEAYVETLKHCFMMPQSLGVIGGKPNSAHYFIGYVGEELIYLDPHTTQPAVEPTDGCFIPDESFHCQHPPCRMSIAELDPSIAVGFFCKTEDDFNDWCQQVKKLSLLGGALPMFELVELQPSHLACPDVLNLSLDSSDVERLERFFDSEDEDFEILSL
Sequence of Peroxisome proliferator-activated receptor gamma/Nuclear receptor corepressor 2 (P37231 whole entry, the tested form may be a part): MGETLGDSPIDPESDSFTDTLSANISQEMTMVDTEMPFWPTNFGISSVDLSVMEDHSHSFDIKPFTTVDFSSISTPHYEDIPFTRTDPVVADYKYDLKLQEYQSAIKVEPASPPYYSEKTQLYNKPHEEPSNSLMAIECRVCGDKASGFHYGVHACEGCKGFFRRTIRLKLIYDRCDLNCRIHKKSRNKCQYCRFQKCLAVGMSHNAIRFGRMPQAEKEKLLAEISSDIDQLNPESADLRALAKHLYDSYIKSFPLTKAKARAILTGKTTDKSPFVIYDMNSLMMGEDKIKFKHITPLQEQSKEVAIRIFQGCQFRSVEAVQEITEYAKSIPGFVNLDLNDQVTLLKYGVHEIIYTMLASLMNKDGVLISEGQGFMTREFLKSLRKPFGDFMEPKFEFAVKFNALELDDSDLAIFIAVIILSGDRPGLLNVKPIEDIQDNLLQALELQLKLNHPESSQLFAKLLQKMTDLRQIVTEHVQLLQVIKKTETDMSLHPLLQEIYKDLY
Sequence of Peroxisome proliferator-activated receptor gamma/Nuclear receptor corepressor 2 (Q9Y618 whole entry, the tested form may be a part): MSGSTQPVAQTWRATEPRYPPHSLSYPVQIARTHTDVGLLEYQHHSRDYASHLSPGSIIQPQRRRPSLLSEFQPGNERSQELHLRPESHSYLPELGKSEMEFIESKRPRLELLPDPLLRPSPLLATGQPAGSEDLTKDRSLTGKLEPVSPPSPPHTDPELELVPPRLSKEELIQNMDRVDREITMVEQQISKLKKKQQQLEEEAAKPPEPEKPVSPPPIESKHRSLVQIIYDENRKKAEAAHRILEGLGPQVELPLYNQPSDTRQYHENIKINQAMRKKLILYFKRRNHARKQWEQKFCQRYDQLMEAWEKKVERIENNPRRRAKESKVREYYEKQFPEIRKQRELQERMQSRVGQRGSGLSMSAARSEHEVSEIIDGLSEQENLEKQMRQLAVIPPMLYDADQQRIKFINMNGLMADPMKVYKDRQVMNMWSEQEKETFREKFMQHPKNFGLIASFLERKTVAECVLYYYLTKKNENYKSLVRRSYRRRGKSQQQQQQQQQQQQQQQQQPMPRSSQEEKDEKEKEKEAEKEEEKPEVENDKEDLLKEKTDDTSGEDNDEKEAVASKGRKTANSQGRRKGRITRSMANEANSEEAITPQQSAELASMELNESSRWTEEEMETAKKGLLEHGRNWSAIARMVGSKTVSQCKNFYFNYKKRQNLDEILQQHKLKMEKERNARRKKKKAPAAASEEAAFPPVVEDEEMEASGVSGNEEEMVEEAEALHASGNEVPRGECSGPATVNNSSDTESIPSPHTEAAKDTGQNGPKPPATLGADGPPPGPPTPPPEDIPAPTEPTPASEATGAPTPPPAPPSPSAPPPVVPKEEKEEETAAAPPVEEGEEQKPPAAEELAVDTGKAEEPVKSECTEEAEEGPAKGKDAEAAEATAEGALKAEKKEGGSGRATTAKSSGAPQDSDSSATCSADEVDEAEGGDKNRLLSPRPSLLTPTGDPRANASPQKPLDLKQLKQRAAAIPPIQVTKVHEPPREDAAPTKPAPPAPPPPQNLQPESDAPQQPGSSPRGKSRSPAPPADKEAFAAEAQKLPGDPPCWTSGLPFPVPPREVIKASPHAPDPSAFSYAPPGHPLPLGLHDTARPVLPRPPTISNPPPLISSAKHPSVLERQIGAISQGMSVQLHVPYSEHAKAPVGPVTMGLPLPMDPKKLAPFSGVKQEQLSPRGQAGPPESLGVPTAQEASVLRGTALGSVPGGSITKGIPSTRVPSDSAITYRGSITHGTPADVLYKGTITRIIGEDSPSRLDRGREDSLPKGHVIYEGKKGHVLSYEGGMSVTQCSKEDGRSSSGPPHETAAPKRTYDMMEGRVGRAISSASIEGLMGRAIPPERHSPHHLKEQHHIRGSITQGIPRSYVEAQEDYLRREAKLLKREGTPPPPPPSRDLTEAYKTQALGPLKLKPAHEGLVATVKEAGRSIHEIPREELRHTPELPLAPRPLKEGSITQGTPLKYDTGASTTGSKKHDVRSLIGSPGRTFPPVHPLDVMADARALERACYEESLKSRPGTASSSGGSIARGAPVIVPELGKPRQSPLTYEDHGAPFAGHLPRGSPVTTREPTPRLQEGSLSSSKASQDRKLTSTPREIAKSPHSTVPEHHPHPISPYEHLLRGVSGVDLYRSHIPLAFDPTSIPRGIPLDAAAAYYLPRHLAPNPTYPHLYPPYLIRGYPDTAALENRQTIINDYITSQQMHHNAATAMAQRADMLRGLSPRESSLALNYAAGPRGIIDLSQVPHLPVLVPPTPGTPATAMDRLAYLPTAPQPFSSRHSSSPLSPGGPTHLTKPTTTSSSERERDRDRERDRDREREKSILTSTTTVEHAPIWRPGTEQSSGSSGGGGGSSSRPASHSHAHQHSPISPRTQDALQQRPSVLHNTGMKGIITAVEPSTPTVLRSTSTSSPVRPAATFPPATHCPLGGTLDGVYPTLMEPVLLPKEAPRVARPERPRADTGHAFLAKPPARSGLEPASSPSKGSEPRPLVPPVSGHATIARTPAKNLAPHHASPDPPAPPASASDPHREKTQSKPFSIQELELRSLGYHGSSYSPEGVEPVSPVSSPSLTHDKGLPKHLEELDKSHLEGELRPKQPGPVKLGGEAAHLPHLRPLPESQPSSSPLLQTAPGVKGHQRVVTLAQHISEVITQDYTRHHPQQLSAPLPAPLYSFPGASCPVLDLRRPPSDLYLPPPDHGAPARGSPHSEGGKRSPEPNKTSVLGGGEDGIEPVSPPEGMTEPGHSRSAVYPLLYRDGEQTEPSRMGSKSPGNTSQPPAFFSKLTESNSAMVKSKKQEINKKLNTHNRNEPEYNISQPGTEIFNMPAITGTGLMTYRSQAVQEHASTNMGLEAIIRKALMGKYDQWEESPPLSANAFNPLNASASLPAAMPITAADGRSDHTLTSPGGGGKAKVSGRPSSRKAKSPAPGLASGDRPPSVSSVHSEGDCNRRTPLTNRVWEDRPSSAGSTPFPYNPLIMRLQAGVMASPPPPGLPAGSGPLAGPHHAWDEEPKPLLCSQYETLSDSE
Sequence of Induced myeloid leukemia cell differentiation protein Mcl-1 (Q07820 whole entry): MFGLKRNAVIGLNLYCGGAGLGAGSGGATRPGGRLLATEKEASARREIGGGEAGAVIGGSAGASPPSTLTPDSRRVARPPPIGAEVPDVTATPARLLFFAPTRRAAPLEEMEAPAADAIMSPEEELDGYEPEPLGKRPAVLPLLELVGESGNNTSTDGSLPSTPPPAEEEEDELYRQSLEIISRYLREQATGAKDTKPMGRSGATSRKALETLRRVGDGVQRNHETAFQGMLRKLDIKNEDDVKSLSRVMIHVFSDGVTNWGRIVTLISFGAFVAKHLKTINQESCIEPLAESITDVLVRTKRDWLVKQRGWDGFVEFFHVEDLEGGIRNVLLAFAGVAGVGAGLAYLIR

With `C[C@@H](CN1CCC(n2c(=O)[nH]c3cc(I)ccc32)CC1)NC(=O)c1ccc(Cl)cc1` the IC50 [1] was 2.4 µM (active) and the IC50 [2] was 0.016 µM (active).

With `O=[N+]([O-])c1cc2oc3c(c2c(/C=N/Cc2ccccc2)c1O)CCCC3` the IC50 [3] was 0.502 µM (active), the IC50 [4] was 20.6 µM (active) and the IC50 [5] was 1.28 µM (active).

For `Cc1cc(N2C(=O)C(O)=C(C(=O)c3cc4ccccc4o3)C2c2cccc(Br)c2)no1` (stereo not drawn), the AC50 [6] was 3.24 µM (active), the IC50 [7] was 1.97 µM (active) and the IC50 [8] was > 50 µM (active). For the same compound, the IC50 [9] was > 39.8 µM (not active).

For `O=C(O)c1ccccc1-c1ccc(/C=c2\sc3nc4cc(Br)cnc4n3c2=O)o1`, the AC50 [10] was 17.8 µM (inconclusive), the IC50 [11] was 0.308 µM (active) and the IC50 [12] was > 100 µM (inactive). For the same compound, the IC50 [13] was 31.7 µM (active), the IC50 [14] was 1.25 µM (active) and the IC50 [15] was 2.31 µM (active). For the same compound, the IC50 [16] was 3.32 µM (active), the IC50 [17] was 1.26 µM (active) and the IC50 [18] was 6.8 µM (active). For the same compound, the IC50 [19] was 0.159 µM (active), the AC50 [20] was 20 µM (inconclusive) and the IC50 [21] was 6.36 µM (active). For the same compound, the EC50 [22] was 2.39 µM (active) and the IC50 [23] was 4.92 µM (active).
